# Assays:
# Type in all cases: cell-based
# [1] = tested on: Bax/Bcl‐2; assay: Bax/Bcl‐2 ratio by RT‐PCR, PDAC3 cells
# Experimental: In order to understand modulation of downstream genes of CDK7, gene expression analysis by qPCR was performed in all cell lines. Cells (5 × 10^5/well) were seeded in 6‐well plates and treated with the compounds 1b and 1g at 1× and 4 × IC50 concentrations. Cell lysates were collected 24 h post‐treatment using 300 µL of TRIzol Reagent (Ambion, 15,596,018) per well. Total RNA was extracted by mixing 60 µL of chloroform to the samples, incubating for 3 min and centrifuging at 12,000 rcf for 15 min at 4 °C. The upper aqueous phase containing RNA was transferred to a new Eppendorf and mixed with 120 µL of cold isopropanol in order to allow the RNA to precipitate. Samples were incubated at RT for 10 min and were then centrifuged at 12,000 rcf for 10 min at 4 °C. The isopropanol was carefully removed, and the pellet was washed twice with 70% ETOH. Pellets were left to air dry and consequently resuspended in RNAse‐free water. Samples were left agitation on a thermomixer at 55 °C for 10 min at 600 rpm and were then quantified through NanoDrop technology (Thermo Scientific, NanoDrop One/One^c). RNA samples were stored at −80 °C.
# In order to perform cDNA synthesis, the First Strand cDNA synthesis kit (Thermo Scientific, K1612) was used. The previously isolated RNA was mixed with 1 µL of oligo dT18 primer into a pcr tube. Nuclease free water was added to reach a final volume of 11 µL. Samples were centrifuged at 1200 rcf for 5 min and were then placed on a thermomixer at 65 °C for a few minutes. A master mix was prepared, including 4 µL of 5× reaction buffer, 1 µL of ribolock RNAse inhibitor, 2 µL of dntp mix (10 mM), and 2 µL of M‐mulv reverse transcriptase for each sample. In total 9 µL of master mix were added to each vial. Samples were centrifuged again and were finally synthesized, following a cycle of 60 min at 37 °C and 5 min at 70 °C. cDNA was now finally synthesized and could be stored at −20 °C. RT‐PCRs reactions were performed using SYBR Green (Bio‐Rad, 1,725,271) (5 µL per sample), primer mix (0.3 µM) (2 µL per sample), and cDNA (10 ng µL^− ^1) (3 µL per sample). […] RT‐PCR assays were carried out in a GeneAmp 5700 Sequence Detection System programmed to hold at 50 °C for 30 min, to hold at 95 °C for 10 min, and to complete 45 cycles of 95 °C for […] and 50 °C for 1 min. The genes that were investigated are shown in Table 5 , with their respective forward and reverse primer sequences.
# [2] = tested on: PDAC3; assay: Wound healing assay, PDAC3; settings: PDAC3, up to 24 h
# Experimental: The wound healing assay was used to test the migratory ability of the selected cells post‐treatment. Cells (5 × 10^4 /well) were seeded on 96‐well. After 24 h, cells reached the optimal 100% confluency, and an artificial wound was created with a 96‐well Pintool Scratcher. The cells were immediately washed with complete medium, in order to remove cell debris after the scratch, and images of the wells were captured at time 0 h, right before the addition of the treatment. Each drug (1b and 1g) was previously diluted in the respective medium at two different concentrations: 1 × IC50 and 4 × IC50 (according to the cell specific IC50 value) and were then added to the cells. Images were then taken at timepoints 4, 8, 20, and 24 h using the Leica microscope with a JAI TMC‐137 camera to assess wound closure. The images were analyzed using the Universal Grab 6.3 software (DCILabs), and the obtained data were used to determine the percentage of migration of the cells, using the following formula. (2) % Migration=Mean width of the wound atT=0−Mean width of the wound atT=X/Mean width of the wound atT=0×100
# [3] = tested on: PANC‐1; assay: Annexin V apoptosis assay, PANC‐1; settings: 1 × IC50
# Experimental: In order to investigate the apoptotic properties of the compounds 1b and 1g, the Annexin V apoptosis assay was performed. Annexins are calcium‐dependent phospholipid binding proteins, which are able to bind to phosphatidylserine (PS). The externalization of PS residues on the outer membrane of apoptotic cells can be detected by Annexin V.
# For this assay, cells were seeded in a 96‐well plate at a concentration of 13.5 × 10^3 and 4.5 × 10^3 /well respectively for the 24 and 72 h experiments. The next day cells were treated with compounds 1b and 1g at 1 × IC50 and 4 × IC50 concentrations. The apoptosis assay was performed 24 and 72 h post‐treatment following the BD Pharmingen FITC Annexin V Apoptosis Detection Kit I (BD Biosciences, 556,547). The supernatant was aspirated, and cells were washed with phosphate‐buffered saline (PBS). Cells were consequently treated with binding buffer BBA + Annexin V (1:100) and were incubated in the dark at RT for 10 min. The supernatant was removed, and the cells were washed with BBA (1:10). Cells were then incubated with BBA + PI (1:100) and were immediately read with the spectrophotometer at ex. 485/ em. 535. Two different programs were used to read the Annexin V and the PI absorbance. Lastly, 100 µL of PBS were added to each well before being fixed with TCA. This was followed by the SRB assay to standardize fluorescence data according to cell count. Data were exported into GraphPad Prism 10 for statistical analysis.
# [4] = tested on: PATU‐T spheroids; assay: PATU‐T 3D spheroids, resazurin viability; settings: three cell densities, 1 × IC50 and 4 × IC50
# Experimental: The modulation of the growth of spheroids was utilized as a method to assess the effect of the novel compounds 1b and 1g in a 3D structure. The PATU‐T cell line was employed to make such a structure. Agarose 1.5% is a solid gel at RT; thus, in order to become a liquid solution, it was heated up into a microwave for about 30 s—1 min, depending on when it starts boiling. Once heated up, the bottle containing the agarose was wrapped in aluminum foil, and it was allowed to maintain the temperature and the liquid state of the agarose. Each well of a flat‐bottom 96‐well plate was coated with 70 µL of agarose. Plates were left to cool down and dried for 1 h at RT. Afterward, 7 × 10^3, 1 × 10^4, and 2 × 10^4 cells/well (200 µL) were seeded in order to identify the optimal amount of cell for the spheroid formation. Finally, the plates were centrifuged at 1200 rpm for 6 min and placed in the incubator for 7 days at 37 °C, 5% CO2. After one week, spheroids were imaged at day 0 h with the inverted routine microscope Nikon Eclipse Ts2 and were consequently treated with compounds 1b and 1g at 4 × IC50 and 1 × IC50. In order to assess the effects of the treatment, images were then taken every 3 days, and medium along with treatment was refreshed at the same interval. […] Cells were then collected, counted, and reseeded in 96‐well plates. […] Absorbance was read at 570 nm.
Compound,"Bax/Bcl‐2 ratio PDAC3 ([1]; 1 × IC50, 24 h after treatment)","Bax/Bcl‐2 ratio PDAC3 ([1]; 4 × IC50, 24 h after treatment)",inhibition of cell migration [2],"apoptotic index ([3]; PANC‐1, 24 h)","apoptotic index ([3]; PANC‐1, 72 h)",cell viability compared to untreated controls (resazurin) [4]
"Cn1cc(-c2cc3ncnc(N)n3n2)c2cc(Br)ccc21 [Compound 1g, 7‐(5‐Bromo‐1‐methyl‐1H‐indol‐3‐yl)pyrazolo[1,5‐a][1,3,5]triazin‐4‐amine]",0.36,0.38,significant migration inhibition only at the 24‐hour time point,did not show any significant increase in apoptotic index,slight increase that was not statistically significant,significantly reduced viability
"Nc1ncnc2cc(-c3c[nH]c4ccc(Br)cc34)nn12 [Compound 1b, 7‐(5‐Bromo‐1H‐indol‐3‐yl)pyrazolo[1,5‐a][1,3,5]triazin‐4‐amine]",0.44,0.01,significant migration inhibition only at the 24‐hour time point,did not show any significant increase in apoptotic index,significant increase in apoptotic index,significantly reduced viability
